58 compounds from US20220347175A1, “PYRIDAZINONE DERIVATIVE” (Sumitomo Dainippon Pharma Co., Ltd., priority 2018, published 2022) can be followed below.

Where two headings read alike, the source gives them in different places.

The target of this assay is T1, human Nav1.1 (Homo sapiens, UniProt P35498).
T1 construct: host or cells: HEK293
Description: Amplification of Nav1.1-derived voltage-dependent sodium current (Nav1.1 current), cell line stably expressing human Nav1.1, automated patch clamp. The note with it: for activation at 10 µM / activation at 1 µM / activation at 50 µM: read-out: Nav1.1 current amplification rate (%). Type of assay: cell-based. Here is the method:
Test 1: Evaluation of the Amplification of Nav1.1-Derived Voltage-Dependent Sodium Current (Nav1.1 Current) by Using a Cell Line Stably Expressing Human Nav1.1
(1) Preparation of Test Compounds
Test compounds were prepared by dissolving in DMSO at 200 times of the concentration at evaluation, and diluting the obtained solution to twice the concentration of evaluation with an extracellular fluid (135 mmol/L NaCl, 4 mmol/L KCl, 1 mmol/L MgCl2, 5 mmol/L CaCl2, 5 mmol/L Glucose, 10 mmol/L HEPES).
(2) Induction and Measurement of Nav1.1 Current
A HEK293 cell line stably expressing human Nav1.1 (cat #CYL3009, Millipore, USA, Human Embryonic Kidney 293) was purchased, and used in the present test. Nav1.1 current was induced by stimulating Ramp wave voltage. Detection of current which accompanied with the stimulation of voltage was carried out by a patch-clamp voltage-clamp method using HTS automated patch clamp system (SynchroPatch 768PE, Nanion Technologies GmbH, Germany). Only cells with more than 500 pA of voltage-dependent sodium channel current were used for the evaluation of the activity of compounds on Nav1.1 current because there was the possibility that currents derived from endogenous voltage-dependent sodium channels accounted for large proportion in cells with less than 500 pA of voltage-dependent sodium channel current which was induced by stimulating Ramp wave voltage.
(3) Pharmacologic Effect on Nav1.1 Current
The effect of test compounds on the amplification of Nav1.1-derived voltage-dependent sodium current was evaluated by using a cell line stably expressing human Nav1.1 and HTS automated patch clamp system. In other words, test compounds were added in an extracellular fluid containing 1% DMSO, and evaluated as a change of the peak value of Nav1.1 current and the area under the curve (AUC).
(4) Method for Pharmacological Evaluation
The Nav1.1 current amplification rates of test compounds were calculated by the following formula:
Nav1.1 current amplification rate (%)=100×[the peak value of Nav1.1 current or the area under the curve after the addition of test compounds]/[the peak value of Nav1.1 current or the area under the curve before the addition of test compounds]−100

The mark [1] stands for this setting: 10 μmol/L compound (Test Result 5).
The mark [2] stands for this setting: compound 50 μmol/L, HEK293 stably expressing human Nav1.1.
Where [3] appears, read: concentration of each compound 1 μmol/L (Test Result 6).
[4] abbreviates: Concentration 1 μM (Test Result 7).

Turning to `CC1(C)CCC(c2ccc(=O)n(CC(=O)Nc3ccc(C#N)cc3)n2)CC1` [Example 38, N-(4-Cyanophenyl)-2-[3-(4,4-dimethylcyclohexyl)-6-oxopyridazin-1(6H)-yl]acetamide], the activation at 10 µM under setting [1] was determined as 174%. Consider `N#Cc1ccc(NC(=O)Cn2nc(C3=CCCCC3)ccc2=O)cc1` [Example 39], for which the “Nav1.1 current amplification rate (%)” value under setting [1] is reported as 125%. Same read-out and setting: in the case of `N#Cc1ccc(NC(=O)Cn2nc(C3CCCCC3)ccc2=O)cc1` [Example 40] it was 20%; in that of `CC1CC=C(c2ccc(=O)n(CC(=O)Nc3ccc(C#N)cc3)n2)CC1` (stereo not shown) [Example 41], 324%; in that of `CC1(C)CC=C(c2ccc(=O)n(CC(=O)Nc3ccc(C#N)cc3)n2)CC1` [Example 42], 216%. Consider `CC1CCC(c2ccc(=O)n(CC(=O)Nc3ccc(C#N)cc3)n2)CC1` (stereo not shown) [Example 43], for which the “Nav1.1 current amplification rate (%)” value under setting [1] came out at 174%. As for `CC1CCC(c2ccc(=O)n(CC(=O)Nc3ccc(C#N)cc3)n2)CC1` (stereo not shown) [Example 44], under setting [1], the “Nav1.1 current amplification rate (%)” value worked out at 59%.

In the case of `CC1(C)CCC=C(c2ccc(=O)n(CC(=O)Nc3ccc(C#N)cc3)n2)C1` [Example 45], under setting [1], the “Nav1.1 current amplification rate (%)” value amounted to 202%. Still for that read-out and setting: in the case of `CC1(C)CCCC(c2ccc(=O)n(CC(=O)Nc3ccc(C#N)cc3)n2)C1` (stereo not shown) [Example 46] it was 85%. Still for that read-out and setting: in the case of `N#Cc1ccc(NC(=O)Cn2nc(C3CCC(F)(F)CC3)ccc2=O)cc1` [Example 47] it was 11%; in that of `N#Cc1ccc(NC(=O)Cn2nc(C3=CCCCO3)ccc2=O)cc1` [Example 48], 33%; in that of `CC1C=C(c2ccc(=O)n(CC(=O)Nc3ccc(C#N)cc3)n2)CC(C)O1` (stereo not shown) [Example 49], 2%.

For the compound `Cc1ccc(-c2ccc(=O)n(CC(=O)Nc3cncnc3)n2)cc1` [Example 141], the “Nav1.1 current amplification rate (%)” value under setting [1] turned out to be 46%. On the same count and under the same terms, to `Cc1ccc(-c2ccc(=O)n(CC(=O)Nc3ccnnc3)n2)cc1` [Example 142] belongs 34%. On to `Cc1ccc(-c2ccc(=O)n(CC(=O)N3CCc4ccccc43)n2)cc1` [Example 157], for which the “Nav1.1 current amplification rate (%)” value under setting [2] is on record as 29%.

Turning to `CC1CCN(c2ccc(=O)n(CC(=O)N3CCN(c4ccccn4)CC3)n2)CC1` [Example 180], the activation at 10 µM under setting [1] is 22%. Take `COc1cccc2c1CCN2C(=O)Cn1nc(N2CCC(C)(C)CC2)ccc1=O` [Example 186]: the activation at 10 µM under setting [1] came out at 51%. Take `CC1(C)CCN(c2ccc(=O)n(CC(=O)Nc3ccn4ncnc4c3)n2)CC1` [Example 228]: the activation at 1 µM under setting [3] came to 29%. With `CC1CCN(c2ccc(=O)n(CC(=O)Nc3ccn4ncnc4c3)n2)CC1` [Example 229], the activation at 1 µM under setting [3] amounted to 34%. Same read-out and setting: to `O=C(Cn1nc(N2CCC3(CCC3)C2)ccc1=O)Nc1ccn2ncnc2c1` [Example 230] belongs 33%; to `O=C(Cn1nc(N2CCC3(CCC3)CC2)ccc1=O)Nc1ccn2ncnc2c1` [Example 231], 50%. With `CC1CCN(c2ccc(=O)n(CC(=O)Nc3ccc4c(c3)NCC4)n2)CC1` [Example 233], under setting [2], the activation at 50 µM came to 47%.

As to `O=C(Cn1nc(N2CCC3(CCC3)C2)ccc1=O)Nc1ccc2cncnc2c1` [Example 236, 2-[3-(6-azaspiro[3.4]octan-6-yl)-6-oxopyridazin-1(6H)-yl]-N-(quinazolin-7-yl)acetamide], the activation at 1 µM under setting [3] stood at 214%. For the compound `CC1CC2CCC(C1)N2c1ccc(=O)n(CC(=O)Nc2ccn3ccnc3c2)n1` (stereo not shown) [Example 237], the activation at 50 µM under setting [2] was 27%. For `CC1CC2CCC(C1)N2c1ccc(=O)n(CC(=O)N2CCc3c(N4CCOCC4)cccc32)n1` (stereo not shown) [Example 238], under setting [2], the activation at 50 µM is 128%. Take `Cc1nc(N2CCN(C(=O)Cn3nc(C4=CCC(C)CC4)ccc3=O)CC2)no1` (stereo not shown) [Example 406]: the “Nav1.1 current amplification rate (%)” value under setting [2] is given as 68%. Regarding `CC1CC=C(c2ccc(=O)n(CC(=O)N3CCN(C4CCCOC4)CC3)n2)CC1` (stereo not shown) [Example 408], the “Nav1.1 current amplification rate (%)” value under setting [2] came to 80%. Turning to `CC1CC=C(c2ccc(=O)n(CC(=O)N3CCN(C4CCOCC4)CC3)n2)CC1` (stereo not shown) [Example 411], the “Nav1.1 current amplification rate (%)” value under setting [2] was found to be 18%. Consider `CC1CC=C(c2ccc(=O)n(CC(=O)N3CCN(c4ccn(C)n4)CC3)n2)CC1` (stereo not shown) [Example 412], for which, under setting [2], the “Nav1.1 current amplification rate (%)” value is given as 36%. For `CC1CC=C(c2ccc(=O)n(CC(=O)N3CC=C(c4ccncc4)CC3)n2)CC1` (stereo not shown) [Example 419], the “Nav1.1 current amplification rate (%)” value under setting [3] was found to be 66%. With `CC1CC=C(c2ccc(=O)n(CC(=O)N3CC=C(c4ccccn4)CC3)n2)CC1` (stereo not shown) [Example 420], under setting [1], the “Nav1.1 current amplification rate (%)” value is 39%. In the case of `O=C(Cn1nc(C2=CCCC2)ccc1=O)Nc1ccn2ccnc2c1` [Example 457], the “Nav1.1 current amplification rate (%)” value under setting [2] is given as 29%.

Take `O=C(Cn1nc(-c2cc(Cl)cs2)ccc1=O)Nc1ccn2ccnc2c1` [Example 467]: the “Nav1.1 current amplification rate (%)” value under setting [3] was 80%.

Turning to `O=C(Cn1nc(C2=CCCC2)ccc1=O)N1CCc2c(N3CCOCC3)cccc21` [Example 481], the “Nav1.1 current amplification rate (%)” value under setting [1] is given as 128%. On to `O=C(Cn1nc(C2=CCCCC2)ccc1=O)Nc1ccn2ncnc2c1` [Example 495], for which, under setting [3], the activation at 1 µM worked out at 28%. Take `CC1(C)CC=C(c2ccc(=O)n(CC(=O)Nc3ccn4ncnc4c3)n2)C1` [Example 496]: the activation at 1 µM under setting [3] amounted to 37%.

In the case of `O=C(Cn1nc(-c2cc(Cl)cs2)ccc1=O)Nc1ccn2ncnc2c1` [Example 497], the activation at 1 µM under setting [3] stood at 43%. For the compound `N#Cc1ccsc1-c1ccc(=O)n(CC(=O)Nc2ccn3ncnc3c2)n1` [Example 498], the activation at 10 µM under setting [1] turned out to be 24%. `COc1cc(=O)n(CC(=O)Nc2ccn3ncnc3c2)nc1C1=CCC(C)(C)CC1` [Example 499]: the activation at 1 µM under setting [3] amounted to 50%. The same measure, in the same setting: to `COc1cc(=O)n(CC(=O)Nc2ccc3oc(N(C)C)nc3c2)nc1C1=CCC(C)(C)CC1` [Example 500] belongs 14%; to `Cc1cc(=O)n(CC(=O)Nc2ccc3ncnn3c2)nc1C1=CCC(C)CC1` (stereo not shown) [Example 501], 33%; to `Cc1cc(=O)n(CC(=O)Nc2ccc3oc(N(C)C)nc3c2)nc1C1=CCC(C)(C)CC1` [Example 504], 27%. Turning to `Cc1cc(=O)n(CC(=O)Nc2ccn3cnnc3c2)nc1C1=CCC(C)(C)CC1` [Example 505], the activation at 50 µM under setting [2] came to 255%.

Turning to `CC1(C)CC(c2ccc(=O)n(CC(=O)Nc3ccc(C#N)cc3)n2)=CCO1` [Example 506], the activation at 50 µM under setting [2] was 10%. As for `CC1(C)C=C(c2ccc(=O)n(CC(=O)Nc3ccc(C#N)cc3)n2)CCO1` [Example 507], under setting [1], the activation at 10 µM amounted to 10%. On to `O=C(Cn1nc(C2=CCCCC2)ccc1=O)N1CCc2c(CN3CCOCC3)cccc21` [Example 519], for which the activation at 1 µM under setting [3] came to 135%.

For `O=C(Cn1nc(C2=CCCCO2)ccc1=O)N1CCc2c(-c3ccnnc3)cccc21` [Example 525], the activation at 10 µM under setting [1] worked out at 18%. In the case of `Cc1ccc(Oc2ccc(=O)n(CC(=O)N3CCc4c(-c5ccnnc5)cccc43)n2)cc1` [Example 529], the activation at 1 µM under setting [3] amounted to 43%. On to `Cc1ccc(Oc2ccc(=O)n(CC(=O)Nc3ccn4ncnc4c3)n2)cc1` [Example 530], for which the activation at 50 µM under setting [2] stood at 9%. As for `CC1CC=C(c2ccc(=O)n(CC(=O)NC3CCn4ccnc4C3)n2)CC1` (stereo not shown) [Example 533], the activation at 10 µM under setting [1] worked out at 22%. On the same count and under the same terms, in the case of `CC1(C)CC=C(c2ccc(=O)n(CC(=O)NC3CCn4ccnc4C3)n2)CC1` (stereo not shown) [Example 534] it was 7%.

Take `COc1cc(=O)n(CC(=O)Nc2ccc3cncnc3c2)nc1C1=CCC(C)(C)CC1` [Example 541]: the activation at 1 µM under setting [4] turned out to be 325%. Same read-out and setting: to `CC1CC=C(c2ccc(=O)n(CC(=O)Nc3ccc4cccnc4c3)n2)CC1` (stereo not shown) [Example 543] belongs 154%; to `CC1CC=C(c2ccc(=O)n(CC(=O)Nc3ccc4ccncc4c3)n2)CC1` (stereo not shown) [Example 544], 208%. The same measure, in the same setting: to `CC1CC=C(c2ccc(=O)n(CC(=O)Nc3ccc4cnccc4c3)n2)CC1` (stereo not shown) [Example 545] belongs 223%; to `CC1CC=C(c2ccc(=O)n(CC(=O)Nc3ccc4ncccc4c3)n2)CC1` (stereo not shown) [Example 546], 59%. For `CC1CC=C(c2ccc(=O)n(CC(=O)Nc3ccc(C#N)cc3F)n2)CC1` (stereo not shown) [Example 547], the activation at 1 µM under setting [4] amounted to 70%. Turning to `CC1CC=C(c2ccc(=O)n(CC(=O)Nc3cnc4ccccc4n3)n2)CC1` (stereo not shown) [Example 548], the activation at 1 µM under setting [4] amounted to 41%.
